The record followed here is US9611223B2, “3-aryl-5-substituted-isoquinolin-1-one compounds and their therapeutic use” (INSTITUTE OF CANCER RESEARCH: ROYAL CANCER HOSPITAL (THE), priority 2013, dated 2017).

Like-named read-outs stand apart in the source and are kept apart here.

One test addresses T1, TNKS1 (Homo sapiens, UniProt O95271, M1266I).
T1 construct: expresses the active PARP domain of TNKS1 as a polyhistidine tagged protein; made in house; host or cells: E. coli Rosetta2(DE3)
In words: TNKS1/PARP Biochemical Assay. The protocol:
TNKS1/PARP Biochemical Assay
Tankyrase activity was assayed using a 96-well format HT Universal Chemiluminescent PARP Assay Kit (Trevigen, Inc, cat. no. 4676-096-K) according to the manufacturer's instructions. In short, tankyrase/PARP activity is quantified by the incorporation of biotinylated nicotinamide adenine dinucleotide (biotin-NAD^+) onto the immobilised pseudo substrate, Histone. The extent of poly(Biotin-ADP)ribosylation (PARylation) in the presence of increasing dose of inhibitor is then quantified by binding of streptavidin conjugated horse radish peroxidase (strep-HRP) followed by chemiluminescent detection.
Prior to assay initiation, inhibitor stocks were prepared in aqueous DMSO (10% (v/v)) from 5 millimolar (mM) stock in 100% DMSO (Sigma Aldrich, cat. no. 265855) as 10× concentrations. For the primary assay (i.e., single dose at 1 micromolar (μM) final concentration) this corresponded to 10 μM in 10% DMSO. For IC50 determination, this corresponded to 100 μM, 30 μM, 10 μM, 3.0 μM, 1.0 μM, 0.30 μM, 0.10 μM and 0 μM in 10% DMSO for final concentrations of 10 μM, 3.0 μM, 1.0 μM, 0.30 μM, 0.10 μM, 0.030 μM, 0.010 μM, and 0 μM with 1% (v/v) final DMSO. The assay was initiated by the addition of 10× inhibitor (5 microliters (μL)) or 10% aqueous DMSO (5 μL) to triplicate wells. Twenty microliters of diluted TNKS1 protein (200 nanomolar (nM) final conc.) in PARP buffer (Trevigen, Inc, cat. no. 4671-096-02) was added to each histone coated well, which was previously hydrated with PARP buffer. Triplicate wells with 1% DMSO/buffer alone (no enzyme) were also added as a measure of assay ‘noise’. Positive control for PARP inhibition included the addition of 4-amino-1,8-naphthalimide (Sigma Aldrich, cat. no A0966) in corresponding doses.
The mixture was incubated for 10 minutes at room temperature and the PARylation reaction initiated by the addition of PARP cocktail (25 μL, Trevigen, Inc) containing biotin-NAD^+ (Trevigen, Inc, cat. no. 4670-500-01), activated DNA (Trevigen, Inc, cat. no. 4671-096-06) and PARP buffer. The reaction was incubated for 1.5 hours (for TNKS1) or 1 hour (for PARP1) at room temperature. The reaction mixture was then removed by aspiration and the wells washed (3×200 μL) with phosphate buffered saline containing Triton X-100 (0.1% (v/v), Sigma Aldrich cat. no. T8787). The wells were then washed (3×200 μL) with phosphate buffered saline and then incubated with strep-HRP (50 μL, Trevigen, Inc, cat. no. 4800-30-06) in strep-diluent (1:500 dilution, Trevigen Inc, cat. no. 4671-096-04) for 1 hour at room temperature. The Strep-HRP mixture was then aspirated and the wells washed (3×200 μL) with phosphate buffered saline containing Triton X-100 (0.1% (v/v)) followed by phosphate buffered saline (3×200 μL) and then incubated with PeroxyGlow™ reagent (100 μL, Trevigen, Inc, cat. nos. 4675-096-01, 4675-096-02, room temperature, mixed 1:1).
The amount of light emitted as a result of the peroxidase-chemiluminescent reagent reaction was in proportion to the extent of poly(Biotin-ADP)ribosylation and was immediately measured with a Victor^2 plate reader (Perkin Elmer, luminescence detection assay, luminescent units described as ‘Counts Per Second’ (CPS)). The data were normalised to the DMSO control after subtraction of ‘noise’ and was expressed as % PARP activity as a function of inhibitor dose. Inhibition was expressed as 100%−(% PARP activity). Dose response curves used to determine IC50 values were Log transformed and analysed by non-linear regression analysis (variable slope) using Prism (GraphPad Software, Inc) and were presented as IC50 with 95% confidence interval to determine relative potency.
Tankyrase1 (pNIC-Bsa4-TNKS1^PARP) expression construct was obtained from the Structural Genomics Consortium (SGC) and expresses the active PARP domain of TNKS1 as a polyhistidine tagged protein. […]

The subject of the next test is Wnt signalling. In words: Wnt-Luciferase Reporter Assay. To be noted: DLD1-Wnt-Luc cells, 20-22 hours. The test is classed as cell-based. As for the experimental part: Wnt-Luciferase Reporter Assay
A Wnt dependent cell line (i.e., DLD1 colorectal adenocarcinoma cell line) was transduced with replication incompetent VSV-g pseudotyped lentiviral particles expressing the firefly luciferase gene under the control of minimal cytomegalovirus (mCMV) promoter and tandem repeats of the TCF/LEF transcriptional response element.
DLD1-Wnt-Luc cells were seeded (5000 cells/well) in a 96-well plate (Greiner Bio-One, cat. no. 655098) in Dubelco's Modified Eagle Medium (DMEM, SFBCO/Invitrogen, cat no. 41965-039) supplemented with Fetal Bovine Serum (FBS, 10%, SFBCO/Invitrogen, cat no. 10108-165). After overnight incubation, the media was replaced with OptiMEM (SFBCO/Invitrogen, cat no. 11058-021) supplemented with FBS (0.5%) and non-essential amino acids (1%, SFBCO/Invitrogen, cat no. 11140-035) and the appropriate putative TNKS inhibitor at a final concentration of 10 μM, 3 μM, 1 μM, 0.30 μM, 0.10 μM, 0.030 μM, 0.010 μM and 0 μM with 1% (v/v) final DMSO in double-triplicate wells. Positive control includes the use of XAV-939 (Maybridge, FisherScientific, 3,5,7,8-tetrahydro-2-[4-(trifluoromethyl)phenyl]-4H-thiopyrano[4,3-d]pyrimidin-4-one, cat. no. RF03920, see: Huang et al., Nature, 2009, Vol. 461, pp. 614-620). Cells were incubated for 20-22 hours before assaying for luciferase (first set of triplicates: Wnt activation) and viability (second set of triplicates: cell survival for data normalisation vs Wnt-activation) using ONE-Glo (Promega, cat. no. E6110) and CellTiter-Glo (Promega, cat. no. G7570) reagents consecutively. The assay was measured using a Victor^2 plate reader. The data were normalised to the DMSO control and were expressed as % Wnt activity as a function of inhibitor dose. Dose response curves used to determine IC50 values were Log transformed and analysed by non-linear regression analysis (variable slope) using Prism (GraphPad Software, Inc).
(A reporter such as luciferase makes a cellular process visible.)

A further test concerns COLO320DM cells. In words: Tumour Cell Inhibition Assay (COLO320DM cells). Format: cell-based. Particulars: Homo sapiens, COLO 320DM, 120 h, five day exposure, read-out: cell inhibitory SF50 (COLO320DM). As for the experimental part: (§1) Tumour Cell Inhibition in Colorectal Tumour Cells
(§2) In order to determine the efficacy of acute dosing of putative TNKS inhibitors, five day exposure cell viability assays were carried out. This included the sparse seeding of cells in a 96-well plate followed by continuous dosing of cells over a five day period.
(§3) Appropriate cell lines (HT55, COLO320DM and SW620) were seeded at 500 cells/well in a 96-well plate in MEM (HT55), RPMI (COLO320DM) or DMEM (SW620) supplemented with FBS. After overnight incubation, cells were treated with the appropriate putative TNKS inhibitor in 6 or 10 concentrations ranging from 0 μM to 10 μM at 0.2% final DMSO concentration in appropriate media supplemented with 10% or 0.5% FBS. Dosages were carried out in triplicate. Termination of the assay and measurement of cell viability was achieved by the use of Cell Titre Glo reagent and luminescence measurement on an appropriate plate reader.
(§4) Dose response curves used to determine SF50 values were Log transformed and analysed by non-linear regression analysis (variable slope) using Prism (GraphPad Software, Inc).

Another test concerns HT55 cells. In words: Tumour Cell Inhibition Assay (HT55 cells). To be noted: Homo sapiens, HT55, 120 h, read-out: cell inhibitory SF50 (HT55). The test is classed as cell-based. As for the experimental part: as §1, §2, §3, §4
Where [1] appears, read: Tumour Cell Inhibition Assay, five day exposure.

T1 sequence (O95271 1112-1317 M1266I): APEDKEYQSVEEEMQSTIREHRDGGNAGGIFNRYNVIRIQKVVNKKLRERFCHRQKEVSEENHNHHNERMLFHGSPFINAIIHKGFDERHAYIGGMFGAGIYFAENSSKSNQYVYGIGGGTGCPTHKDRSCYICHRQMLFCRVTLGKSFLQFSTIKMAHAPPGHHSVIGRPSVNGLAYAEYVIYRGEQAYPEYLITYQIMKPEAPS

Regarding `N#Cc1cccc2c(=O)[nH]c(-c3ccc(CN4CC5CCC(C4)N5)cc3)cc12` [IQ-003], the IC50 against TNKS1 was under 100 nM; in the test on Wnt signalling it was under 300 nM; in the test on COLO320DM cells it was under 5000 nM.
Consider `N#Cc1cccc2c(=O)[nH]c(-c3ccc(C(=O)N4CCNCC4)cc3)cc12` [IQ-004, 1-Oxo-3-[4-(piperazine-1-carbonyl)-phenyl]-1,2-dihydro-isoquinoline-5-carbonitrile], for which the figures for the IC50 on TNKS1 and in the test on HT55 cells (setting [1]) were under 50 nM and under 5000 nM, respectively.
For the molecule `CN1CCC(N(C)C(=O)c2ccc(-c3cc4c(C#N)cccc4c(=O)[nH]3)cc2)CC1` [IQ-005], the IC50 was under 50 nM on TNKS1, under 300 nM in the test with Wnt signalling and under 5000 nM in the test with COLO320DM cells.
`N#Cc1cccc2c(=O)[nH]c(-c3cnc(N4CCN(C(=O)C5CC5)CC4)nc3)cc12` [IQ-007, 3-[2-(4-Cyclopropanecarbonyl-piperazin-1-yl)-pyrimidin-5-yl]-1-oxo-1,2-dihydro-isoquinoline-5-carbonitrile]: the results for the IC50 against TNKS1 and in the test on Wnt signalling were under 50 nM and under 300 nM, respectively.
For `N#Cc1cccc2c(=O)[nH]c(-c3ccc(Cn4ccnc4CO)cc3)cc12` [IQ-015, 3-[4-(2-Hydroxymethyl-imidazol-1-ylmethyl)-phenyl]-1-oxo-1,2-dihydro-isoquinoline-5-carbonitrile], the IC50 was under 50 nM against TNKS1, under 5000 nM with COLO320DM cells and under 5000 nM in the test on HT55 cells (setting [1]).
Consider `N#Cc1cccc2c(=O)[nH]c(-c3ccc(Cn4ccnc4N)cc3)cc12` [IQ-018], for which the IC50 on TNKS1 was under 50 nM; in the test with Wnt signalling, under 300 nM; in the test on COLO320DM cells it was under 5000 nM; in the test on HT55 cells (setting [1]) it was under 5000 nM.
In the case of `N#Cc1cccc2c(=O)[nH]c(-c3ccc(Cn4cccn4)cc3)cc12` [IQ-021], the IC50 is under 50 nM at TNKS1 and under 300 nM in the test on Wnt signalling.
As for `N#Cc1cccc2c(=O)[nH]c(-c3ccc(Cn4nccn4)cc3)cc12` [IQ-027], the IC50 on TNKS1 is under 100 nM; with Wnt signalling, under 300 nM; with COLO320DM cells, under 5000 nM.
For the molecule `COCCN1CCN(C(=O)c2ccc(-c3cc4c(C#N)cccc4c(=O)[nH]3)cc2)CC1` [IQ-035], the results for the IC50 on TNKS1, with Wnt signalling and in the test on COLO320DM cells were under 50 nM, under 300 nM and under 5000 nM, respectively.
Regarding `CN1CCN(C(=O)Cc2ccc(-c3cc4c(C#N)cc(F)cc4c(=O)[nH]3)cc2)CC1` [IQ-036], the IC50 is under 50 nM on TNKS1, under 300 nM in the test on Wnt signalling and under 5000 nM with COLO320DM cells.
For `CN1CCN(C(=O)Cc2ccc(-c3cc4c(C#N)cccc4c(=O)[nH]3)cc2)CC1` [IQ-037], in that order: under 50 nM, under 300 nM and under 5000 nM.
For the molecule `Cc1nnc(C2CCN(Cc3ccc(-c4cc5c(C#N)cccc5c(=O)[nH]4)cc3)CC2)o1` [IQ-041], the IC50 against TNKS1 was under 50 nM; with Wnt signalling it was under 300 nM; with HT55 cells, under 5000 nM.
In the case of `Cc1nnc(NCc2ccc(-c3cc4c(C#N)cccc4c(=O)[nH]3)cc2)o1` [IQ-045, 3-{4-[5-Methyl-[1,3,4-oxadiazol-2-ylamino)methyl]phenyl}-1-oxo-1,2-dihydroisoquinoline-5-carbonitrile], the figures for the IC50 against TNKS1, with Wnt signalling and in the test with COLO320DM cells were under 50 nM, under 300 nM and under 5000 nM, respectively.
Consider `CN1CCCN(Cc2ccc(-c3cc4c(C#N)cccc4c(=O)[nH]3)cc2)CC1` [IQ-048], for which the figures for the IC50 against TNKS1, with COLO320DM cells and in the test with HT55 cells (setting [1]) were under 50 nM, under 5000 nM and under 5000 nM, respectively.
In the case of `N#Cc1cccc2c(=O)[nH]c(-c3ccc(CN4CCNCC4)cc3)cc12` [IQ-050, 1-Oxo-3-(4-piperazin-1-ylmethyl-phenyl)-1,2-dihydro-isoquinoline-5-carbonitrile], the IC50 with Wnt signalling is under 300 nM.
`N#Cc1cccc2c(=O)[nH]c(-c3ccc(N4CCNCC4)nc3)cc12` [IQ-052]: the IC50 at TNKS1 was under 100 nM; with Wnt signalling, under 300 nM; in the test with COLO320DM cells, under 5000 nM.
Regarding `N#Cc1cccc2c(=O)[nH]c(-c3ccc(N4CCNCC4)cc3)cc12` [IQ-054], the IC50 at TNKS1 was under 50 nM; in the test on HT55 cells it was under 5000 nM.
